{"source": "ChEMBL document CHEMBL1136534", "about": "“Dihydroquinolines with amine-containing side chains as potent n-NOS inhibitors” (Bioorg Med Chem Lett, 2003)", "key": {"[1]": {"target": "T1, Nitric oxide synthase 3 (Homo sapiens, UniProt P29474)", "T1 sequence (P29474 whole entry)": "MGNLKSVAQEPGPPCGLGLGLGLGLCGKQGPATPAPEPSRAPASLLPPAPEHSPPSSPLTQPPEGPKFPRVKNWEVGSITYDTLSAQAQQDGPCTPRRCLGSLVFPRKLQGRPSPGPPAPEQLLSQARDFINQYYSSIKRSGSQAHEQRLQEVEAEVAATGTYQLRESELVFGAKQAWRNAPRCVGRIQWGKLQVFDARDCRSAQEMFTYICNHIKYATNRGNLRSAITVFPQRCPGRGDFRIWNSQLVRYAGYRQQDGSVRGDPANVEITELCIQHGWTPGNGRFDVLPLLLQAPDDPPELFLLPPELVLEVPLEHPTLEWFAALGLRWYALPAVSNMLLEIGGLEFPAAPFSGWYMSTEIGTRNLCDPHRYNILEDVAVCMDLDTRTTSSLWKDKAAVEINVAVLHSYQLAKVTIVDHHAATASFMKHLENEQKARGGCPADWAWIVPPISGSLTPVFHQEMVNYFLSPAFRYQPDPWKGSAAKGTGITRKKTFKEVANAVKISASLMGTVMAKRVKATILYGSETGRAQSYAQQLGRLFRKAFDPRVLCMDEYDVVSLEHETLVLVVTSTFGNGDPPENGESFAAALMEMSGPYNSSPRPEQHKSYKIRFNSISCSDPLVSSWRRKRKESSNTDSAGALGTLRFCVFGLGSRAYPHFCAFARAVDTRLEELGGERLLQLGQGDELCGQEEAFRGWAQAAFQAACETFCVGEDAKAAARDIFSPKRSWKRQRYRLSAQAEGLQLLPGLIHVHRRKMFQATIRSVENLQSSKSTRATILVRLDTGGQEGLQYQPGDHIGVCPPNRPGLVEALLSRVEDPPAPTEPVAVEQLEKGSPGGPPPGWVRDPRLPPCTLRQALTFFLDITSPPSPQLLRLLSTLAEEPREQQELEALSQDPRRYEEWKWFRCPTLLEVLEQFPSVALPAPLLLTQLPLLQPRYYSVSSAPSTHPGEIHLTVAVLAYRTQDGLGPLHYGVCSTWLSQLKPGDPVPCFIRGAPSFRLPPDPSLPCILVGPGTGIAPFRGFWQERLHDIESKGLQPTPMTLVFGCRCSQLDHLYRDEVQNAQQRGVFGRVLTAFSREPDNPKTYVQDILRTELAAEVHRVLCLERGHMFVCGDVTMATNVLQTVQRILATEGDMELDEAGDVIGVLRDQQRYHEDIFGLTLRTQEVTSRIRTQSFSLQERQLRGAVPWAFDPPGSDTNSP", "assay": "Inhibitory concentration against recombinant human Endothelial nitric oxide synthase"}, "[2]": {"target": "Nitric oxide synthase, inducible (Homo sapiens, UniProt P35228)", "sequence (P35228 whole entry)": "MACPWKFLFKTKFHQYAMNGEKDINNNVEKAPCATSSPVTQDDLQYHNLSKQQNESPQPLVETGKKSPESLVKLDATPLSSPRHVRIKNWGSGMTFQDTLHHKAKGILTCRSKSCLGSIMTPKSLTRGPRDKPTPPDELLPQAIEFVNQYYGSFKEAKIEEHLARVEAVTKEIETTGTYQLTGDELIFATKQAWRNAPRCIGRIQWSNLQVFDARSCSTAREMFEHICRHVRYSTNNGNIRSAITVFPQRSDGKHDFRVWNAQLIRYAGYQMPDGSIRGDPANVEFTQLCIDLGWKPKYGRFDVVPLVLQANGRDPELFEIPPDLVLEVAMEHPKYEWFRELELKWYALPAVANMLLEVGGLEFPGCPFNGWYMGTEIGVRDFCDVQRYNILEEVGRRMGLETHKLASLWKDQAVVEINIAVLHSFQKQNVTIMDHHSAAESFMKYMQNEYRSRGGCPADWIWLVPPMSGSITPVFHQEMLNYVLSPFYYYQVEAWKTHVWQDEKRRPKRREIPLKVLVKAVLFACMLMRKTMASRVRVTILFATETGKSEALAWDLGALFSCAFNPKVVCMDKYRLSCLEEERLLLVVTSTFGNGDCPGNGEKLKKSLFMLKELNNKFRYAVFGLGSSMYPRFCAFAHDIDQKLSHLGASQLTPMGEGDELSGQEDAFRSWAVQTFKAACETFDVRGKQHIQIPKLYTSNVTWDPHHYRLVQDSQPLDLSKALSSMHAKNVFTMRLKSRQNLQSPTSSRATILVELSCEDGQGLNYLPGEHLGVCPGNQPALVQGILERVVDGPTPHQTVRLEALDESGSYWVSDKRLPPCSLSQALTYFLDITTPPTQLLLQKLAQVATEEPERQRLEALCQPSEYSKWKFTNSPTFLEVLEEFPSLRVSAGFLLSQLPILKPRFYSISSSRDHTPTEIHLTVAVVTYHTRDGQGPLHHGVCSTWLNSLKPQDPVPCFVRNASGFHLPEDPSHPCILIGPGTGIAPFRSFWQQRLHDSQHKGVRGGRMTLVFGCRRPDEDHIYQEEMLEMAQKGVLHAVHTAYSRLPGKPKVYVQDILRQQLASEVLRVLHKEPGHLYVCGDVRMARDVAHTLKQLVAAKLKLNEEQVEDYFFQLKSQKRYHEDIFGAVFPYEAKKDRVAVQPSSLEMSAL", "assay": "Inhibitory concentration against human Inducible nitric oxide synthase"}, "[3]": {"target": "Nitric oxide synthase 1 (Homo sapiens, UniProt P29475)", "sequence (P29475 whole entry)": "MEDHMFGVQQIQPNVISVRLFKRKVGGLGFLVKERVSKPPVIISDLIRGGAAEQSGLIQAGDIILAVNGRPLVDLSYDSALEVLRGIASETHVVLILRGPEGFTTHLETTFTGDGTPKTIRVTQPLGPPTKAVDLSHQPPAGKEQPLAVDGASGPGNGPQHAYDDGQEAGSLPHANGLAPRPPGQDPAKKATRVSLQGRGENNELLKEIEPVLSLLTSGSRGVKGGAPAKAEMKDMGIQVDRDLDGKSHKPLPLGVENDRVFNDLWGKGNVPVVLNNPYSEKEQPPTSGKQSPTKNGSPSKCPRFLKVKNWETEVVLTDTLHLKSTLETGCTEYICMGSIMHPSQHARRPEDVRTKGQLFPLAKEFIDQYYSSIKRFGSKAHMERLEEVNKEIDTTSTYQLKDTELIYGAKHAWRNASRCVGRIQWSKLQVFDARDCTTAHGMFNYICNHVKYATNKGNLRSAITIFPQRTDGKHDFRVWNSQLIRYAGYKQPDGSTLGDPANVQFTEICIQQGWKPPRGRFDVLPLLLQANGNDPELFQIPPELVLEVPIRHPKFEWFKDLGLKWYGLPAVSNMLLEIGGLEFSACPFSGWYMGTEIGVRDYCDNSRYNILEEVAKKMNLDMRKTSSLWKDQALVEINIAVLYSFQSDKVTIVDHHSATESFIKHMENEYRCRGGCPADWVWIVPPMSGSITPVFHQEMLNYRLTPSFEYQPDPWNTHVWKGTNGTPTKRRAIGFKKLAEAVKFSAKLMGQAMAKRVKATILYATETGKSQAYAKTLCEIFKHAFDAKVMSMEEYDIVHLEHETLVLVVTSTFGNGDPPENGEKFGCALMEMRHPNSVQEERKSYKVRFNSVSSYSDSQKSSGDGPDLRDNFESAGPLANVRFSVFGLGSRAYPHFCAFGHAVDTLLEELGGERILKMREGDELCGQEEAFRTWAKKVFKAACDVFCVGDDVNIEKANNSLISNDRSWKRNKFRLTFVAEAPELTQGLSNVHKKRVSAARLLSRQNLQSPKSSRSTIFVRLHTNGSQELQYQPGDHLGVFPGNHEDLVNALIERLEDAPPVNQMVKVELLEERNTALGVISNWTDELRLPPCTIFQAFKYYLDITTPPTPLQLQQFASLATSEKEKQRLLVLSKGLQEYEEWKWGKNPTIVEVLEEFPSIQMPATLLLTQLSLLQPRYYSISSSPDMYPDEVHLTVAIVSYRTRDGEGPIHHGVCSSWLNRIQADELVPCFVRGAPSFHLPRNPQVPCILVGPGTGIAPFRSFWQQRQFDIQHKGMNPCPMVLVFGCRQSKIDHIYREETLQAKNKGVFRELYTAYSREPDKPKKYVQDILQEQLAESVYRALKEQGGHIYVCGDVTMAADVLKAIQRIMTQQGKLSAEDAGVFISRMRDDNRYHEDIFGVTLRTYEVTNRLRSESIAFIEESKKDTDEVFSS", "assay": "Inhibitory concentration against recombinant human (neuronal nitric oxide synthase) n-NOS"}}, "data": [{"smiles": "NC1=Nc2cc(CNCc3cccc(Cl)c3)ccc2[C@H]2CCC[C@@H]12", "values": [{"measurement": "IC50", "setting": "[1]", "result": 9600, "unit": "nM"}, {"measurement": "IC50", "setting": "[2]", "result": 950, "unit": "nM"}, {"measurement": "IC50", "setting": "[3]", "result": 140, "unit": "nM"}]}, {"smiles": "CNCCOc1ccc2c(c1)N=C(N)[C@@H]1CCC[C@H]21", "values": [{"measurement": "IC50", "setting": "[1]", "result": 52000, "unit": "nM"}, {"measurement": "IC50", "setting": "[2]", "result": 3900, "unit": "nM"}, {"measurement": "IC50", "setting": "[3]", "result": 170, "unit": "nM"}]}, {"smiles": "NC1=Nc2cc(CCNCc3cccc(Cl)c3)ccc2[C@H]2CCC[C@@H]12", "values": [{"measurement": "IC50", "setting": "[1]", "result": 6700, "unit": "nM"}, {"measurement": "IC50", "setting": "[2]", "result": 530, "unit": "nM"}, {"measurement": "IC50", "setting": "[3]", "result": 48, "unit": "nM"}]}, {"smiles": "N=C(Nc1ccc(CCNCc2cccc(Cl)c2)cc1)c1cccs1", "values": [{"measurement": "IC50", "setting": "[1]", "result": 3500, "unit": "nM"}, {"measurement": "IC50", "setting": "[3]", "result": 35, "unit": "nM"}]}, {"smiles": "NC1=Nc2cc(CCCNCc3cccc(Cl)c3)ccc2[C@H]2CCC[C@@H]12", "values": [{"measurement": "IC50", "setting": "[1]", "result": 9400, "unit": "nM"}, {"measurement": "IC50", "setting": "[2]", "result": 580, "unit": "nM"}, {"measurement": "IC50", "setting": "[3]", "result": 42, "unit": "nM"}]}, {"smiles": "NC1=Nc2cc(CCNCc3cccc(Cl)c3)c(Cl)cc2[C@H]2CCC[C@@H]12", "values": [{"measurement": "IC50", "setting": "[1]", "result": 8700, "unit": "nM"}, {"measurement": "IC50", "setting": "[2]", "result": 1600, "unit": "nM"}, {"measurement": "IC50", "setting": "[3]", "result": 170, "unit": "nM"}]}]}
